Experimental data reported in ChEMBL document CHEMBL2046425, “Neamphamide B, new cyclic depsipeptide, as an anti-dormant mycobacterial substance from a Japanese marine sponge of Neamphius sp” (2012).
≈ marks a conversion by molar mass, not a printed value.

Key:
[1] = test system: Mycobacterium tuberculosis; test: Antimicrobial activity against Mycobacterium bovis BCG under aerobic condition for 7 days by MTT assay; format: functional; conditions: variant bovis BCG, 168 h
[2] = test system: Mycobacterium tuberculosis; test: Antimicrobial activity against Mycobacterium bovis BCG under dormancy-inducing hypoxic condition for 14 days by MTT assay; format: functional; conditions: variant bovis BCG, 336 h

With `COC(c1ccc(O)cc1)C1NC(=O)[C@H](CCC(N)=O)N(C)C(=O)[C@H](CC(C)C)NC(=O)[C@@H](CCCNC(=N)N)NC(=O)[C@@H]([C@@H](C)O)NC(=O)[C@H](NC(=O)C(NC(=O)[C@H](O)[C@H](O)[C@H](CCCNC(=N)N)NC(=O)[C@@H](CC(N)=O)NC(=O)C(C)C(O)C(C)CC(C)C)C(C)C(C)C(N)=O)[C@@H](C)OC(=O)[C@@H]2CCCCN2C1=O` (some centres not stated) [NEAMPHAMIDE B] the MIC [1] was 6.25 µg/mL (≈ 3.97 µM) and the MIC [2] was 12.5 µg/mL (≈ 7.94 µM).
